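The compound was tested at five concentrations on cells cultured in 96-well plates, with a 48-hour exposure period. GI50 marks 50% less growth. TGI: total growth inhibition.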
These compounds were tested on OVCAR-4 ovarian (assay: NCI-60 cell line screen, 48 h).
With CC1(C)CC(=O)C2=C(C1)C(c1ccccc1Cl)C1C(=O)CC(C)(C)CC1(O)O2 (stereo unspecified) the TGI was over 100 µM.
With Cn1nc(-c2ccc(S(=O)(=O)/N=C(\NN)Nc3ccc(Cl)cc3)s2)cc1C(F)(F)F the TGI was 29.9 µM.
With CCc1c(O)cc(=O)oc1-c1ccc(OC)c(OC)c1 the TGI was over 100 µM.
In the case of Cc1ccc2c(c1C)C(=O)C1(Cc3cc4c(cc3C1=O)CCC4)C2 (stereo unspecified), the TGI is reported as over 100 µM.
With CCCCI(O)OS(=O)(=O)c1ccc(C)cc1 the TGI was over 100 µM.
C[C@@H]1CC[C@@]2(C)C(C(=O)O)=CCCC2[C@@]1(C)CC(=O)c1ccoc1 (stereo partly specified) was tested, and the TGI was over 25 µM.
Clc1cccc(-c2sc(-c3cccs3)cc2Cc2cccs2)c1 was tested, and the TGI was over 10 µM.
Compound c1ccc(-c2c(-c3ccccc3)[n+](Cc3ccc4ccccc4c3)c(-c3ccc(-c4nc5ccccc5s4)cc3)n2Cc2ccc3ccccc3c2)cc1 has a GI50 of 0.0486 µM and a TGI of 1.12 µM.
O=c1c2c3c(sc2[nH]c(=S)n1-c1ccccc1)CCCc1ccc([N+](=O)[O-])cc1-3 gave a TGI of over 100 µM.
Compound CC1CC(N2CCOCC2)=Nc2ccccc2N1C (stereo unspecified) has a TGI of over 100 µM.
With CC(C)C(Br)CCC1=CCC(Br)(Br)C1 (stereo unspecified) the TGI was 24.2 µM.
With CN(C)C(=O)C(F)(F)C(c1ccc(F)cc1)C1C(=O)N(C)C(=O)N(C)C1=O (stereo unspecified) the TGI was over 100 µM.
Compound Cc1c2cccc-2c2cc(O)c3ccccc3c2n1-c1ccc(N(C)C)cc1 has a TGI of 12.1 µM.
Cc1c(N2CCOCC2)nc2ccc(Cl)cc2c1-c1ccccc1 showed a TGI of over 100 µM.
For O=c1[nH]c(NCc2ccncc2)nc2nc[nH]c12, the TGI was over 100 µM.
In the case of Cc1ccc(-c2cc(-c3ccco3)c(C#N)c(=S)[nH]2)cc1, the TGI is reported as over 100 µM.
Cc1cc([N+](=O)[O-])c(C)c2c1[nH]c1ccc(Cl)cc12 showed a TGI of over 100 µM.
COc1ccc(C)cc1N1C(=O)C2ON(Cc3ccc(CC(N)=O)cc3)C(c3c4ccccc4c(Cl)c4ccccc34)C2C1=O (stereo unspecified) gave a TGI of 84.6 µM.
Work on COc1ccc(C2Oc3ccc(Cl)cc3C=C2[N+](=O)[O-])cc1 (stereo unspecified) yielded a TGI of over 100 µM.
NS(=O)(=O)c1nnc(NC(=O)N(c2ccccc2)c2ccccc2)s1 was tested, and the TGI was over 100 µM.
With COC(=O)c1ccccc1C1CN=NC12Cc1c(ccc(C)c1C)C2=O (stereo unspecified) the TGI was over 100 µM.
Work on COC(=O)/C=C(\C)CC/C=C(\C)CCC1OC1(C)C (stereo unspecified) yielded a TGI of 22.2 µM.
COc1ccc(CNc2cnc3ccc(N)cc3n2)cc1 was tested, and the TGI was over 100 µM.
In the case of CCOC(=O)C1C(c2ccc(Cl)cc2Cl)NC(c2ccc(C)cc2)C(C(=O)OC)S1(=O)=O (stereo unspecified), the TGI is reported as over 100 µM.
O=C1C=CC2(O[C@H](c3ccccc3)[C@@H](c3ccccc3)O2)[C@H](Sc2ccccc2O)C1 was tested, and the TGI was 2.43 µM.
CN(/N=C1\C(=O)Nc2ccccc21)c1ccccc1 was tested, and the TGI was over 100 µM.

Each compound was assayed on SF-539 CNS (assay: NCI-60 cell line screen, 48 h).
For COc1ccc2ccc3oc(=O)c(C)cc3c2c1, the TGI was over 100 µM.
For O=c1c(F)cn2c(=O)n1CCCCCCCn1c(=O)c(F)cn(c1=O)CCCCCCC2, the TGI was over 100 µM.
For Cc1nnc2n(c1=O)CCCN2C, the TGI was over 100 µM.
With O=C(ON=C1c2ccccc2C(Br)C(Br)c2ccccc21)c1ccccc1 (stereo unspecified) the TGI was 13.9 µM.
In the case of Nc1ncnc2c1nnn2C1C=CC(CP(=O)(O)O)C1 (stereo unspecified), the TGI is reported as over 100 µM.
CN(C)CCn1c(=O)c2ccc(NCCCN(C)CCCNc3ccc4c(=O)n(CCN(C)C)c(=O)n5c6ccc(O)cc6c(=O)c3c45)c3c(=O)c4cc(O)ccc4n(c1=O)c23 gave a TGI of 1.84 µM.
Compound CC(=O)c1ccc(Oc2c3ccccc3nc3ccccc23)cc1 has a TGI of 5.5 µM.
Compound CCCCCCCCCCCCCCCCCCOc1ccccc1CC(=O)NCC[N+]1(C)CCOCC1 has a GI50 of 3.35 µM and a TGI of 12.8 µM.
Work on S=C(Cc1ccc2c(c1)Sc1ccccc1O2)N1CCOCC1 yielded a TGI of 61.1 µM.
C[n+]1cc2cc(O)c(O)cc2c2ccc3cc(O)c(O)cc3c21 gave a TGI of 7.77 µM.
COc1ccc(N=Nc2c(-c3c(OC)cc4occc4c3OC)[nH]c(=O)c(C#N)c2C)cc1 showed a TGI of over 100 µM.
In the case of O=C(/C=C/c1ccc(Cl)cc1)Oc1ccc(C=C2CCC/C(=C\c3ccc(OC(=O)/C=C/c4ccc(Cl)cc4)cc3)C2=O)cc1, the TGI is reported as over 100 µM.
With c1ccc2c(c1)SCCCS2 the TGI was over 100 µM.
With COc1ccc2nc(NC(=O)/C(C#N)=C/c3ccccc3)sc2c1 the TGI was over 100 µM.
Cc1nc2ccc(Cl)cc2c(-n2ccnc2)c1CCn1ccnc1 gave a TGI of over 100 µM.
With Cc1c(C)n(-c2ccccc2)c2nc(S(C)=O)nc(S(C)=O)c12 (stereo unspecified) the TGI was 14.7 µM.
CC1(C)CC(=O)C2=C(C1)C(c1ccccc1Cl)C1C(=O)CC(C)(C)CC1(O)O2 (stereo unspecified) showed a TGI of over 100 µM.
With Cn1nc(-c2ccc(S(=O)(=O)/N=C(\NN)Nc3ccc(Cl)cc3)s2)cc1C(F)(F)F the TGI was 30 µM.
CCc1c(O)cc(=O)oc1-c1ccc(OC)c(OC)c1 showed a TGI of over 100 µM.
Cc1ccc2c(c1C)C(=O)C1(Cc3cc4c(cc3C1=O)CCC4)C2 (stereo unspecified) showed a TGI of over 100 µM.
For CCCCI(O)OS(=O)(=O)c1ccc(C)cc1, the TGI was over 100 µM.
C[C@@H]1CC[C@@]2(C)C(C(=O)O)=CCCC2[C@@]1(C)CC(=O)c1ccoc1 (stereo partly specified) was tested, and the TGI was over 25 µM.
O=C(CCc1cc(O)cc(O)c1)NCCc1cc(OCc2ccccc2)cc(OCc2ccccc2)c1 showed a TGI of 44.6 µM.

From PubChem BioAssay (NCI)
